# Read-outs that look alike come from different tables or passages of the source.
# Columns and labels:
# [1] = Aerodynamic particle size distribution by Andersen Cascade Impactor (ACI), ten cumulative actuations, drug on plates by HPLC; assay type: physicochemical
# Experimental: The aerosol compositions of the invention described below were prepared by the following method. The required components of a composition were added into a can in the following order: drug, non-volatile additive, absolute ethanol. After crimping of the valve on to the can, the propellant was added through the valve. The weight gain of the can after each component was added was recorded to allow the percentage, by weight, of each component in the formulation to be calculated. The aerodynamic particle size distribution of each formulation was characterized using a Multistage Cascade Impactor according to the procedure described in the European Pharmacopoeia 2nd edition, 1995, part V.5.9.1. pages 15-17. In this specific case an Andersen Cascade Impactor (ACI) was used. Results represented were obtained from ten cumulative actuations or a formulation. Deposition of the drug on each ACI plate was determined by high pressure liquid chromatography. The mass median aerodynamic diameter (MMAD) and geometric standard deviation (GSD) were calculated from plots of the cumulative percentage undersize of drug collected on each ACI plate (probit scale), against the upper cut off diameter for each respective ACI plate (log10 scale). The fine particle dose of each formulation was determined from the mass of drug collected on Stages 2 through to Filter (<5.8 μm) divided by the number of actuations per experiment.
# [2] = BDP as a solution in HFA 134a (formulations of EP 0553298), reported in literature; cited from earlier work
# [3] = BDP 50 mg/10 ml, ethanol 15.0 ± 0.2% (w/w), HFA 134a, glycerol 1.0% (w/w), actuator orifice 0.33 mm
# [4] = BDP 50 mg/10 ml, ethanol 15.0 ± 0.2% (w/w), HFA 134a, glycerol 1.3% (w/w), actuator orifice 0.25 mm
# [5] = BDP 50 mg/10 ml, ethanol 15.0 ± 0.2% (w/w), HFA 134a, glycerol 1.3% (w/w), actuator orifice 0.33 mm
# [6] = BDP 50 mg/10 ml, ethanol 15.0 ± 0.2% (w/w), HFA 134a, glycerol 1.6% (w/w), actuator orifice 0.25 mm
# [7] = BDP 50 mg/10 ml, ethanol 15.0 ± 0.2% (w/w), HFA 134a, glycerol 1.6% (w/w), actuator orifice 0.33 mm
# [8] = BDP 50 mg/10 ml, ethanol 15.0 ± 0.2% (w/w), HFA 227 fill to 12 ml, 0% (w/w) glycerol, actuator orifice 0.33 mm
# [9] = BDP 50 mg/10 ml, ethanol 15.0 ± 0.2% (w/w), HFA 227 fill to 12 ml, 1.42% (w/w) glycerol, actuator orifice 0.33 mm
# [10] = BDP 50 mg/10 ml, ethanol 15.2 ± 0.4% (w/w), HFA 134a, propylene glycol 0.0% (w/w), actuator orifice 0.42 mm
# [11] = BDP 50 mg/10 ml, ethanol 15.2 ± 0.4% (w/w), HFA 134a, propylene glycol 0.7% (w/w), actuator orifice 0.42 mm
# [12] = BDP 50 mg/10 ml, ethanol 15.2 ± 0.4% (w/w), HFA 134a, propylene glycol 2.8% (w/w), actuator orifice 0.42 mm
# [13] = BDP 50 mg/10 ml, ethanol 15.2 ± 0.4% (w/w), HFA 134a, propylene glycol 6.3% (w/w), actuator orifice 0.42 mm
# [14] = combination BDP 50 mg/10 ml + Salbutamol base 20 mg/10 ml, ethanol 15.4 ± 0.2% (w/w), HFA 134a, glycerol 0%, oleic acid 0%, actuator exit orifice 0.33 mm
# [15] = combination BDP 50 mg/10 ml + Salbutamol base 20 mg/10 ml, ethanol 15.4 ± 0.2% (w/w), HFA 134a, glycerol 0%, oleic acid 0.3%, actuator exit orifice 0.33 mm
# [16] = combination BDP 50 mg/10 ml + Salbutamol base 20 mg/10 ml, ethanol 15.4 ± 0.2% (w/w), HFA 134a, glycerol 0%, oleic acid 1.3%, actuator exit orifice 0.30 mm
# [17] = combination BDP 50 mg/10 ml + Salbutamol base 20 mg/10 ml, ethanol 15.4 ± 0.2% (w/w), HFA 134a, glycerol 1.2%, oleic acid 0.3%, actuator exit orifice 0.30 mm
smiles,measurement,setting,value
"CCC(=O)OCC(=O)[C@@]1(OC(=O)CC)[C@@H](C)C[C@H]2[C@@H]3CCC4=CC(=O)C=C[C@]4(C)[C@@]3(Cl)[C@@H](O)C[C@@]21C [BDP, beclomethasone dipropionate]",Mean emitted dose,"[1]; BDP 50 mg/10 ml, ethanol 15.0 ± 0.2% (w/w), HFA 134a, glycerol 1.0% (w/w), actuator orifice 0.25 mm",218.3 µg
same,Fine particle dose,[1]; [3],55.9 µg
same,MMAD ± GSD,[1]; [3],2.8 ± 2.2 μm
same,Mean emitted dose,[1]; [3],227.9 µg
same,Fine particle dose,[1]; [4],100.3 µg
same,MMAD ± GSD,[1]; [4],2.6 ± 2.0 μm
same,Mean emitted dose,[1]; [4],220.8 µg
same,Fine particle dose,[1]; [5],54.3 µg
same,MMAD ± GSD,[1]; [5],3.1 ± 2.3 μm
same,Mean emitted dose,[1]; [5],228.4 µg
same,Fine particle dose,[1]; [6],96.6 µg
same,MMAD ± GSD,[1]; [6],2.7 ± 2.0 μm
same,Mean emitted dose,[1]; [6],228.0 µg
same,Fine particle dose,[1]; [7],50.9 µg
same,MMAD ± GSD,[1]; [7],3.1 ± 2.3 μm
same,Mean emitted dose,[1]; [7],231.7 µg
same,FPD,[1]; [8],62.1 µg
same,GSD,[1]; [8],2.6
same,MMAD,[1]; [8],2.2 μm
same,Mean emitted dose,[1]; [8],221.25 µg
same,FPD,[1]; [9],43.5 µg
same,GSD,[1]; [9],2.4
same,MMAD,[1]; [9],4.1 μm
same,Mean emitted dose,[1]; [9],230.5 µg
same,Fine particle dose,[1]; [10],41.6 µg
same,MMAD ± GSD,[1]; [10],1.7 ± 2.3 μm
same,Mean emitted dose,[1]; [10],209.1 µg
same,Fine particle dose,[1]; [11],41.1 µg
same,MMAD ± GSD,[1]; [11],2.1 ± 2.7 μm
same,Mean emitted dose,[1]; [11],218.4 µg
same,Fine particle dose,[1]; [12],32.1 µg
same,MMAD ± GSD,[1]; [12],3.3 ± 3.2 μm
same,Mean emitted dose,[1]; [12],204.2 µg
same,Fine particle dose,[1]; [13],25.2 µg
same,MMAD ± GSD,[1]; [13],4.4 ± 3.8 μm
same,Mean emitted dose,[1]; [13],242.6 µg
same,Emitted dose,[1]; [14],208.9 µg
same,FPD,[1]; [14],67.8 µg
same,GSD,[1]; [14],2.4
same,MMAD,[1]; [14],1.7 μm
same,Emitted dose,[1]; [15],212.7 µg
same,FPD,[1]; [15],60.6 µg
same,GSD,[1]; [15],2.3
same,MMAD,[1]; [15],2.2 μm
same,Emitted dose,[1]; [16],212.5 µg
same,FPD,[1]; [16],58.5 µg
same,GSD,[1]; [16],2.2
same,MMAD,[1]; [16],2.4 μm
same,Emitted dose,[1]; [17],210.8 µg
same,FPD,[1]; [17],63.3 µg
same,GSD,[1]; [17],2.1
same,MMAD,[1]; [17],2.9 μm
same,MMAD,[2],1.1 μm

# From patent US7601336B2, “Pharmaceutical aerosol composition” (Chiesi Farmaceutici S.p.A., priority 1997, dated 2009)
